# Measurements reported in patent US6303789A, “Benzamides with tetrahydrofuranyloxy substitutents as phosphodiesterase 4 inhibitors” (Byk Gulden Lomberg Chemische Fabrik GmbH, priority 1998, dated 2001).
# Test system: PDE4
# Test: Inhibition of PDE4 activity (method of Bauer and Schwabe, adapted to microtiter plates)
# Type: biochemical
# Conditions: inhibitory concentration as -log IC50 (mol/l)
row,SMILES,"Inhibition of the PDE4 activity, -log IC50"
1,"COc1ccc(C(=O)Nc2c(Cl)cncc2Cl)c2c1OC1(COCC1OC)C2 (stereo not shown) [Compound 4, N-(3,5-Dichloropyridin-4-yl)-2,3-dihydro-4',7-dimethoxybenzofuran-2-spiro-3'-tetrahydro-furan-4-carboxamide]",8.11
2,"CCOC1COCC1Oc1cc(C(=O)Nc2c(Cl)cncc2Cl)ccc1OC (stereo not shown) [Compound 2, N-(3,5-Dichloropyridin-4-yl)-3-(4-ethoxytetrahydrofuran-3-yloxy)-4-methoxybenzamide]",8.25
3,"COc1ccc(C(=O)Nc2c(Cl)cncc2Cl)c2c1OC1(COCC1OCc1ccccc1)C2 (stereo not shown) [Compound 5, N-(3,5-Dichloropyridin-4-yl)-2,3-dihydro-4'-benzyloxy-7-methoxybenzofuran-2-spiro-3'-tetrahydrofuran-4-carboxamide]",8.58
4,"COc1ccc(C(=O)Nc2c(Cl)cncc2Cl)cc1OC1COCC1OCc1ccccc1 (stereo not shown) [Compound 3, N-(3,5-Dichloropyridin-4-yl)-3-(4-benzyloxytetrahydrofuran-3-yloxy)-4-methoxybenzamide]",8.70
5,"COc1ccc(C(=O)Nc2c(Cl)cncc2Cl)cc1OC1COCC1O (stereo not shown) [Compound 6, N-(3,5-Dichloropyridin-4-yl)-3-(4-hydroxytetrahydrofuran-3-yloxy)-4-methoxybenzamide]",8.02
6,"COc1ccc(C(=O)Nc2c(Cl)cncc2Cl)cc1OC1COCC1OCSC (stereo not shown) [Compound 7, N-(3,5-Dichloropyridin-4-yl)-4-methoxy-3-(4-methylthiomethyloxytetrahydrofuran-3-yloxy)-benzamide]",8.54
7,"COc1ccc(C(=O)Nc2c(Cl)cncc2Cl)cc1OC1COCC1OC (stereo not shown) [Compound 1, N-(3,5-Dichloropyridin-4-yl)-4-methoxy-3-(4-methoxytetrahydrofuran-3-yloxy)benzamide]",8.24
